Data: ChEMBL document CHEMBL3046848, “Synthesis and biological evaluation of novel series of thieno[2,3-d]pyrimidine derivatives as anticancer and antimicrobial agents” (2013)

Columns and labels:
Type in all cases: functional
[1] = tested on: OVCAR-3; assay: Anticancer activity against Homo sapiens (human) OVCAR3 cells after 48 hr by SRB assay; settings: OVCAR-3, 48 h
[2] = tested on: UACC-257; assay: Growth inhibition of Homo sapiens (human) UACC257 cells at 10 uM after 48 hr by SRB assay; settings: UACC-257, 48 h, read-out: GI
[3] = tested on: K562; assay: Growth inhibition of Homo sapiens (human) K562 cells at 10 uM after 48 hr by SRB assay; settings: K562, 48 h, read-out: GI
[4] = tested on: NCI/ADR-RES; assay: Anticancer activity against Homo sapiens (human) NCI/ADR-RES cells after 48 hr by SRB assay
[5] = tested on: CCRF-CEM; assay: Growth inhibition of Homo sapiens (human) CCRF-CEM cells at 10 uM after 48 hr by SRB assay; settings: read-out: GI
[6] = tested on: M14; assay: Growth inhibition of Homo sapiens (human) M14 cells at 10 uM after 48 hr by SRB assay; settings: M14, 48 h, read-out: GI
[7] = tested on: RPMI-8226; assay: Anticancer activity against Homo sapiens (human) RPMI8226 cells after 48 hr by SRB assay; settings: RPMI-8226, 48 h
[8] = tested on: BT-549; assay: Growth inhibition of Homo sapiens (human) BT549 cells at 10 uM after 48 hr by SRB assay; settings: BT-549, 48 h, read-out: GI
[9] = tested on: IGROV-1; assay: Anticancer activity against Homo sapiens (human) IGROV1 cells after 48 hr by SRB assay; settings: IGROV-1, 48 h
[10] = tested on: A549; assay: Growth inhibition of Homo sapiens (human) A549/ATCC cells at 10 uM after 48 hr by SRB assay; settings: A549, 48 h, read-out: GI
[11] = tested on: A498; assay: Growth inhibition of Homo sapiens (human) A498 cells at 10 uM after 48 hr by SRB assay; settings: A498, 48 h, read-out: GI
[12] = tested on: BT-549; assay: Anticancer activity against Homo sapiens (human) BT549 cells after 48 hr by SRB assay; settings: BT-549, 48 h
[13] = tested on: HCT-116; assay: Anticancer activity against Homo sapiens (human) HCT116 cells after 48 hr by SRB assay; settings: HCT-116, 48 h
[14] = tested on: DU-145; assay: Growth inhibition of Homo sapiens (human) DU145 cells at 10 uM after 48 hr by SRB assay; settings: DU-145, 48 h, read-out: GI
[15] = tested on: SF-539; assay: Anticancer activity against Homo sapiens (human) SF539 cells after 48 hr by SRB assay; settings: SF-539, 48 h
[16] = tested on: MDA-MB-435; assay: Anticancer activity against Homo sapiens (human) MDA-MB-435 cells after 48 hr by SRB assay; settings: MDA-MB-435, 48 h
[17] = tested on: Hs-578T; assay: Anticancer activity against Homo sapiens (human) Hs 578T cells after 48 hr by SRB assay
[18] = tested on: HCC 2998; assay: Growth inhibition of Homo sapiens (human) HCC2998 cells at 10 uM after 48 hr by SRB assay; settings: HCC 2998, 48 h, read-out: GI
[19] = tested on: HCT-15; assay: Anticancer activity against Homo sapiens (human) HCT15 cells after 48 hr by SRB assay; settings: HCT-15, 48 h
[20] = tested on: NCI-H226; assay: Anticancer activity against Homo sapiens (human) NCI-H226 cells after 48 hr by SRB assay; settings: NCI-H226, 48 h
[21] = tested on: HCC 2998; assay: Anticancer activity against Homo sapiens (human) HCC2998 cells after 48 hr by SRB assay; settings: HCC 2998, 48 h
[22] = tested on: OVCAR-8; assay: Anticancer activity against Homo sapiens (human) OVCAR8 cells after 48 hr by SRB assay; settings: OVCAR-8, 48 h
[23] = tested on: UO-31; assay: Anticancer activity against Homo sapiens (human) UO31 cells after 48 hr by SRB assay; settings: UO-31, 48 h
[24] = tested on: HCT-116; assay: Growth inhibition of Homo sapiens (human) HCT116 cells at 10 uM after 48 hr by SRB assay; settings: HCT-116, 48 h, read-out: GI
[25] = tested on: LOX IMVI; assay: Growth inhibition of Homo sapiens (human) LOXIMVI cells at 10 uM after 48 hr by SRB assay; settings: read-out: GI
[26] = tested on: SNB-75; assay: Anticancer activity against Homo sapiens (human) SNB75 cells after 48 hr by SRB assay; settings: SNB-75, 48 h
[27] = tested on: MDA-MB-435; assay: Growth inhibition of Homo sapiens (human) MDA-MB-435 cells at 10 uM after 48 hr by SRB assay; settings: MDA-MB-435, 48 h, read-out: GI
[28] = tested on: U-251; assay: Growth inhibition of Homo sapiens (human) U251 cells at 10 uM after 48 hr by SRB assay; settings: U-251, 48 h, read-out: GI
[29] = tested on: A549; assay: Anticancer activity against Homo sapiens (human) A549/ATCC cells after 48 hr by SRB assay; settings: A549, 48 h
[30] = tested on: KM12; assay: Growth inhibition of Homo sapiens (human) KM12 cells at 10 uM after 48 hr by SRB assay; settings: KM12, 48 h, read-out: GI
[31] = tested on: Malme-3M; assay: Anticancer activity against Homo sapiens (human) MALME-3M cells after 48 hr by SRB assay
[32] = tested on: T47D; assay: Anticancer activity against Homo sapiens (human) T47D cells after 48 hr by SRB assay
[33] = tested on: Staphylococcus aureus; assay: Antimicrobial activity against Staphylococcus aureus ATCC6538P assessed as diameter of growth inhibition zone at 1 mg/ml after 24 hr by agar cup diffusion method; settings: read-out: IZ
[34] = read-out: LC50 (the source's name)

What does the source list for `Cc1c(C(N)=O)sc2nc(C)n(/N=c3\scc(-c4ccccc4)n3Cc3ccccc3)c(=O)c12`?
GI50 [1]: 2.28 µM; TGI [1]: 8.58 µM; CC50 [1, 34]: > 100 µM; inhibition of growth at 10 µM [2]: 95.2%; inhibition of growth at 10 µM [3]: 91.6%; GI50 [4]: 2.9 µM; TGI [4]: 29.2 µM; CC50 [4, 34]: > 100 µM; inhibition of growth at 10 µM [5]: 112%; inhibition of growth at 10 µM [6]: 63.6%; GI50 [7]: 13.9 µM; TGI [7]: > 100 µM; CC50 [7, 34]: > 100 µM; inhibition of growth at 10 µM [8]: 107%; GI50 [9]: 1.43 µM; TGI [9]: 6.31 µM; CC50 [9, 34]: > 100 µM; inhibition of growth at 10 µM [10]: 100%; inhibition of growth at 10 µM [11]: 99.3%; GI50 [12]: 2.41 µM; TGI [12]: 8.89 µM; CC50 [12, 34]: > 100 µM; GI50 [13]: 2.13 µM; TGI [13]: 10 µM; CC50 [13, 34]: > 100 µM; inhibition of growth at 10 µM [14]: 57.9%; GI50 [15]: 4.02 µM; TGI [15]: > 100 µM; CC50 [15, 34]: > 100 µM; GI50 [16]: 2.89 µM; TGI [16]: 12.5 µM; CC50 [16, 34]: > 100 µM; GI50 [17]: 3.85 µM; TGI [17]: > 100 µM; CC50 [17, 34]: > 100 µM; inhibition of growth at 10 µM [18]: 42.9%; GI50 [19]: 2.64 µM; TGI [19]: > 100 µM; CC50 [19, 34]: > 100 µM; GI50 [20]: 3.72 µM; TGI [20]: 67.9 µM; CC50 [20, 34]: > 100 µM; GI50 [21]: 3.05 µM; TGI [21]: > 100 µM; CC50 [21, 34]: > 100 µM; GI50 [22]: 3.49 µM; TGI [22]: > 100 µM; CC50 [22, 34]: > 100 µM; GI50 [23]: 1.66 µM; TGI [23]: 7 µM; CC50 [23, 34]: > 100 µM; inhibition of growth at 10 µM [24]: 70.9%; inhibition of growth at 10 µM [25]: 79.4%; GI50 [26]: 2.8 µM; TGI [26]: > 100 µM; CC50 [26, 34]: > 100 µM; inhibition of growth at 10 µM [27]: 87.8%; inhibition of growth at 10 µM [28]: 92.2%; GI50 [29]: 3.79 µM; TGI [29]: > 100 µM; CC50 [29, 34]: > 100 µM; inhibition of growth at 10 µM [30]: 86.4%; GI50 [31]: 2.18 µM; TGI [31]: > 100 µM; CC50 [31, 34]: > 100 µM; GI50 [32]: 3.25 µM; TGI [32]: > 100 µM; CC50 [32, 34]: > 100 µM; zone of inhibition at 1000 µg/mL [33]: 10 mm
